# Assay results reported in patent publication US20230287021A1, “COMPOUNDS, COMPOSITIONS AND METHODS FOR STABILIZING TRANSTHYRETIN AND INHIBITING TRANSTHYRETIN MISFOLDING” (Protego Biopharma, Inc., priority 2020, published 2023).
# Structures can show the parent of a compound that is named as a salt.
# How the values were obtained:
# [1] = In vitro rat plasma stability assay, formation of tafamidis; type: in vitro ADME; details: 37° C., 2 µM test compound
# In short: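 Compound at 2 µM incubated in rat plasma at 37 °C, sampled at 0, 10, 30, 60, 120 min or 0, 60, 120, 180, 240 min. Protein precipitated, supernatant analyzed by LC-MS/MS, and percentage formation of tafamidis calculated per time point.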
# [2] = In vitro rat liver S9 stability assay, formation of tafamidis; type: in vitro ADME; details: rat liver S9, 37° C., 1 µM test compound
# Method: The test compound was added to liver S9 and incubated at 37° C. in a water bath at a concentration of 1 µM. At each time point (0, 5, 10, 20, 30 and 60 min), stop solution (tolbutamide plus labetalol) was added to precipitate protein and mixed thoroughly. After centrifugation, an aliquot of supernatant was analyzed by LC-MS/MS. The percentage of formation of active agent was calculated at each time point.
# [3] = In vivo rat PK: tafamidis in plasma, CSF and brain; set-up: species or system Male Sprague-Dawley (SD) rats; details: for Tafamidis CSF/Plasma Ratio (iv): iv administration of test compound; for Tafamidis CSF/Plasma Ratio over 24 hrs (po): po administration of test compound
# Text: For a compound provided herein to be an effective TTR stabilizer drug to halt and/or prevent the ocular and cerebral TTR amyloid deposition TTR amyloidosis, it has to be able to penetrate into the brain and CSF (surrogate for eye penetration) and deliver a sufficient amount of TTR stabilizer to stop TTR dissociation. A pharmacokinetic study in rat was used to evaluate the compounds. Male Sprague-Dawley (SD) rats (200-220 g weight) were acclimated for at least 2 to 3 days before being placed on study. All animals had access to certified rodent diet and water at libitum. Appropriate amount of the test compound was accurately weighed and mixed with appropriate volume of vehicle (such as DMSO/sterile water for iv dosing or 0.5% methylcellulose homogenous suspension or solution for oral administration or as a solution in a mixture NMP/PEG400/solutol/water) to administer a dose of 2, 5 or 10 mg/kg. For IV dosing the test compound was administered via tail vein or indwelling cannula. For oral dosing, the test compound was administered by oral gavage. Blood and CSF samples were collected at selected timepoints. Blood collection was performed from saphenous vein or tail vein of each animal into polypropylene tubes at each timepoint. All blood samples were transferred into EDTA-K2 tubes and centrifuged for 15 minutes at 4° C. for plasma collection. Plasma samples were kept at -80° C. until LC/MSMS analysis. CSF was collected from cisterna magna at each timepoint and quick frozen over dry ice and kept at -80° C. until LC/MSMS analysis. Brains were harvested immediately after the terminal bleeding (~ 24 hrs post dosing). The blood of the brain was perfused with normal saline. The brain was quickly picked and placed into centrifuge tube. The weight of brain samples was recorded. 4-Fold homogenization solution (MeOH/15 mM PBS (1:2)) was added into the tube according to the weighed samples. The brain was homogenized using a Polytron (3 strokes or more until homogenous, each 30 seconds) on wet ice. The samples were quick frozen over dry ice and kept at -80° C. until LC/MSMS analysis. Using a LC-MSMS method for the quantitative determination of test compound in biological matrixes, amount of test compound and active agent were measured in plasma and CSF at selected timepoints post-dosing and in brain at 24 hrs post dosing. Plasma concentration versus time data was analyzed by non-compartmental approaches using the Phoenix WinNonlin 6.3 software program. As reference, an oral dose of 2 mg/kg of tafamidis gave a CSF to plasma ratio over 24 hrs around 0.01 and a brain to plasma ratio at 24 hrs around 0.02.
# [4] = tafamidis-treated FAP patients, cited from earlier work
Structure (SMILES),Formation of tafamidis at 120 min [1],Formation of tafamidis at 60 min [2],Tafamidis CSF/Plasma Ratio (iv) [3],Tafamidis CSF/Plasma Ratio over 24 hrs (po) [3],also measured
"O=C(OCCCN1CCCC1)c1ccc2nc(-c3cc(Cl)cc(Cl)c3)oc2c1 [Compound 40, 3-(pyrrolidin-1-yl)propyl 2-(3,5-dichlorophenyl)benzo[d] oxazole-6-carboxylate]",B (B is ≥25 to <50%),A (A is <25%),B (B is ≥0.015 to <0.02),–,–
CS(=O)(=O)N1CCC(OC(=O)c2ccc3nc(-c4cc(Cl)cc(Cl)c4)oc3c2)C1 (stereo not shown) [Compound 139],A (A is <25%),B (B is ≥25 to <50%),–,A (A is < 0.015),–
O=C(OCCN1CCNCC1)c1ccc2nc(-c3cc(Cl)cc(Cl)c3)oc2c1 [Compound 82],A (A is <25%),A (A is <25%),–,A (A is < 0.015),–
O=C(OCCCn1ccnc1)c1ccc2nc(-c3cc(Cl)cc(Cl)c3)oc2c1 [Compound 117],B (B is ≥25 to <50%),D (D is ≥75%),–,B (B is ≥0.015 to <0.02),–
"O=C(OC1CCCN(CC(F)F)C1)c1ccc2nc(-c3cc(Cl)cc(Cl)c3)oc2c1 (stereo not shown) [Compound 167, 1-(2,2-difluoroethyl)piperidin-3-yl 2-(3,5-dichlorophenyl)benzo[d]oxazole-6-carboxylate]",C (C is ≥50 to <75%),C (C is ≥50 to <75%),–,A (A is < 0.015),–
O=C(O)c1ccc2nc(-c3cc(Cl)cc(Cl)c3)oc2c1 [tafamidis],–,–,–,–,"Kp ([3]; male, Sprague-Dawley, CSF and plasma, oral dose of 2 mg/kg of tafamidis, reference, read-out: CSF to plasma ratio over 24 hrs): ~0.01; Kp at 24 h ([3]; male, Sprague-Dawley, brain and plasma, oral dose of 2 mg/kg of tafamidis, reference, read-out: brain to plasma ratio at 24 hrs): ~0.02; tafamidis level in CSF relative to that in plasma ([4]; CSF): 2%; tafamidis/TTR stoichiometric ratio in plasma ([4]; plasma): 2.4; tafamidis/TTR stoichiometric ratio in vitreous and CSF ([4]; vitreous and CSF): ≤ 1; tafamidis level in vitreous relative to that in plasma ([4]; vitreous): 0.5%"
O=C(OC1CCN(Cc2ccccc2)C1)c1ccc2nc(-c3cc(Cl)cc(Cl)c3)oc2c1 (stereo not shown) [Compound 76],C (C is ≥50 to <75%),A (A is <25%),–,B (B is ≥0.015 to <0.02),–
O=C(OC1CCN(CC(F)F)C1)c1ccc2nc(-c3cc(Cl)cc(Cl)c3)oc2c1 (stereo not shown) [Compound 144],B (B is ≥25 to <50%),C (C is ≥50 to <75%),–,B (B is ≥0.015 to <0.02),–
CC(OC(=O)c1ccc2nc(-c3cc(Cl)cc(Cl)c3)oc2c1)C1CCOC1 (stereo not shown) [Compound 161],B (B is ≥25 to <50%),B (B is ≥25 to <50%),–,A (A is < 0.015),–
CN1CCCC(OC(=O)c2ccc3nc(-c4cc(Cl)cc(Cl)c4)oc3c2)C1 (stereo not shown) [Compound 62],B (B is ≥25 to <50%),B (B is ≥25 to <50%),–,A (A is < 0.015),–
"O=C(OCCCN1CCCCC1)c1ccc2nc(-c3cc(Cl)cc(Cl)c3)oc2c1 [Compound 41, 3-(piperidin-1-yl)propyl 2-(3,5-dichlorophenyl)benzo[d] oxazole-6-carboxylate]",C (C is ≥50 to <75%),A (A is <25%),C (C is ≥0.02),A (A is < 0.015),–

# Further lines, with some results ahead:
Formation of tafamidis at 120 min [1],Formation of tafamidis at 60 min [2],Tafamidis CSF/Plasma Ratio (iv) [3],Tafamidis CSF/Plasma Ratio over 24 hrs (po) [3],Structure (SMILES),also measured
C (C is ≥50 to <75%),B (B is ≥25 to <50%),B (B is ≥0.015 to <0.02),–,"CCN(CC)CCOC(=O)c1ccc2nc(-c3cc(Cl)cc(Cl)c3)oc2c1 [Compound 35, 2-(diethylamino)ethyl 2-(3,5-dichlorophenyl)benzo[d]oxazole-6-carboxylate hydrochloride]",–
B (B is ≥25 to <50%),B (B is ≥25 to <50%),B (B is ≥0.015 to <0.02),–,"CN1C[C@H](OC(=O)c2ccc3nc(-c4cc(Cl)cc(Cl)c4)oc3c2)[C@@H](O)C1 [Compound 57, (3S,4S)-4-hydroxy-1-methylpyrrolidin-3-yl 2-(3,5-dichlorophenyl)benzo[d] oxazole-6-carboxylate]",–
A (A is <25%),A (A is <25%),B (B is ≥0.015 to <0.02),–,"CN(C)CCCOC(=O)c1ccc2nc(-c3cc(Cl)cc(Cl)c3)oc2c1 [Compound 1, 3-(Dimethylamino)propyl 2-(3,5-dichlorophenyl)benzo[d]oxazole-6-carboxylate]",–
C (C is ≥50 to <75%),A (A is <25%),–,B (B is ≥0.015 to <0.02),"CN1CC[C@@H](OC(=O)c2ccc3nc(-c4cc(Cl)cc(Cl)c4)oc3c2)C1 [Compound 59, (R)-1-methylpyrrolidin-3-yl 2-(3,5-dichlorophenyl)benzo[d] oxazole-6-carboxylate]",–
B (B is ≥25 to <50%),A (A is <25%),–,B (B is ≥0.015 to <0.02),CC(C)N1CCC(OC(=O)c2ccc3nc(-c4cc(Cl)cc(Cl)c4)oc3c2)C1 (stereo not shown) [Compound 75],–
B (B is ≥25 to <50%),A (A is <25%),C (C is ≥0.02),A (A is < 0.015),"CC(CN(C)C)OC(=O)c1ccc2nc(-c3cc(Cl)cc(Cl)c3)oc2c1 (single isomer, unassigned) [Compound 46, (S*)-1-(dimethylamino)propan-2-yl 2-(3,5-dichlorophenyl)benzo[d]oxazole-6-carboxylate]",–
C (C is ≥50 to <75%),C (C is ≥50 to <75%),–,B (B is ≥0.015 to <0.02),O=C(OCC1CCOC1)c1ccc2nc(-c3cc(Cl)cc(Cl)c3)oc2c1 (stereo not shown) [Compound 85],–
D (D is ≥75%),A (A is <25%),–,A (A is < 0.015),"CC(CN(C)C)OC(=O)c1ccc2nc(-c3cc(Cl)cc(Cl)c3)oc2c1 (single isomer, unassigned) [Compound 47, (R*)-1-(dimethylamino)propan-2-yl 2-(3,5-dichlorophenyl)benzo [d] oxazole-6-carboxylate]",–
A (A is <25%),A (A is <25%),–,A (A is < 0.015),O=C(NCCF)c1ccc2nc(-c3cc(Cl)cc(Cl)c3)oc2c1 [Compound 88],–
A (A is <25%),A (A is <25%),B (B is ≥0.015 to <0.02),A (A is < 0.015),CN1CCC(OC(=O)c2ccc3nc(-c4cc(Cl)cc(Cl)c4)oc3c2)CC1 [Compound 11],–
D (D is ≥75%),A (A is <25%),C (C is ≥0.02),C (C is ≥0.02),"CN1CCC(OC(=O)c2ccc3nc(-c4cc(Cl)cc(Cl)c4)oc3c2)C1 (stereo not shown) [Compound 7, 1-methylpyrrolidin-3-yl 2-(3,5-dichlorophenyl)benzo[d]oxazole-6-carboxylate]",–
